Measurements as given in US9181230B2, “Morpholine compounds and uses thereof” (Hoffmann-La Roche Inc., priority 2013, dated 2015).
Structures can show the parent of a compound that is named as a salt.

Columns and labels:
rat TAAR1 = rat TAAR1 (Rattus norvegicus (Rat), UniProt Q923Y9); experiment: Radioligand binding assay on rat TAAR1; details: for Ki: rat TAAR1, membranes of HEK-293 cells, second value of the cell pair mouse/rat
Procedure: (§1) For the construction of expression plasmids the coding sequences of human, rat and mouse TAAR 1 were amplified from genomic DNA essentially as described by Lindemann et al.. The Expand High Fidelity PCR System (Roche Diagnostics) was used with 1.5 mM Mg^2+ and purified PCR products were cloned into pCR2.1-TOPO cloning vector (Invitrogen) following the instructions of the manufacturer. PCR products were subcloned into the pIRESneo2 vector (BD Clontech, Palo Alto, Calif.), and expression vectors were sequence verified before introduction in cell lines.
(§2) HEK293 cells (ATCC # CRL-1573) were cultured essentially as described by Lindemann et al. (2005). For the generation of stably transfected cell lines HEK293 cells were transfected with the pIRESneo2 expression plasmids containing the TAAR coding sequences (described above) with Lipofectamine 2000 (Invitrogen) according to the instructions of the manufacturer, and 24 hrs post transfection the culture medium was supplemented with 1 mg/ml G418 (Sigma, Buchs, Switzerland). After a culture period of about 10 d clones were isolated, expanded and tested for responsiveness to trace amines (all compounds purchased from Sigma) with the cAMP Biotrak Enzyme immunoassay (EIA) System (Amersham) following the non-acetylation EIA procedure provided by the manufacturer.
(B) Radioligand Binding Assay on Rat TAAR1
(§3) Membrane Preparation and Radioligand Binding.
(§4) HEK-293 cells stably expressing rat TAAR1 were maintained at 37° C. and 5% CO2 in DMEM high glucose medium, containing fetal calf serum (10%, heat inactivated for 30 min at 56° C.), penicillin/streptomycin (1%), and 375 μg/ml geneticin (Gibco). Cells were released from culture flasks using trypsin/EDTA, harvested, washed twice with ice-cold PBS (without Ca^2+ and Mg^2+), pelleted at 1,000 rpm for 5 min at 4° C., frozen and stored at −80° C. Frozen pellets were suspended in 20 ml HEPES-NaOH (20 mM, pH 7.4) containing 10 mM EDTA and homogenized with a Polytron (PT 6000, Kinematica) at 14,000 rpm for 20 s. The homogenate was centrifuged at 48,000×g for 30 min at 4° C. Subsequently, the supernatant was removed and discarded, and the pellet resuspended in 20 ml HEPES-NaOH (20 mM, pH 7.4) containing 0.1 mM EDTA using the Polytron (20 s at 14,000 rpm). This procedure was repeated and the final pellet resuspended in HEPES-NaOH containing 0.1 mM EDTA and homogenized using the Polytron. Typically, aliquots of 2 ml membrane portions were stored at −80° C. With each new membrane batch the dissociation constant (Kd) was determined via a saturation curve. […] Nonspecific binding was defined as the amount of ^3[H]-(S)-4-[(ethyl-phenyl-amino)-methyl]-4,5-dihydro-oxazol-2-ylamine bound in the presence of 10 μM unlabeled ligand. All compounds were tested at a broad range of concentrations (10 pM to 10 μM) in duplicates. […] The 96 deep well plates were incubated for 1 hr at 4° C. Incubations were terminated by rapid filtration through Unifilter-96 plates (Packard Instrument Company) and glass filters GF/C (Perkin Elmer) presoaked for 1 hr in polyethylenimine (0.3%) and washed 3 times with 1 ml of cold binding buffer. After addition of 45 μl of Microscint 40 (PerkinElmer) the Unifilter-96 plate was sealed and after 1 hr the ratioactivity counted using a TopCount Microplate Scintillation Counter (Packard Instrument Company).

mouse TAAR1 = mouse TAAR1 (Mus musculus (Mouse), UniProt Q923Y8); experiment: Radioligand binding assay on mouse TAAR1; details: for Ki: mouse TAAR1, membranes of HEK-293 cells, first value of the cell pair mouse/rat
Procedure: as §1, §2
(A) Radioligand Binding Assay on Mouse TAAR1
as §3
as §4, with “expressing mouse” for “expressing rat”

Chain of rat TAAR1 (Q923Y9 whole entry): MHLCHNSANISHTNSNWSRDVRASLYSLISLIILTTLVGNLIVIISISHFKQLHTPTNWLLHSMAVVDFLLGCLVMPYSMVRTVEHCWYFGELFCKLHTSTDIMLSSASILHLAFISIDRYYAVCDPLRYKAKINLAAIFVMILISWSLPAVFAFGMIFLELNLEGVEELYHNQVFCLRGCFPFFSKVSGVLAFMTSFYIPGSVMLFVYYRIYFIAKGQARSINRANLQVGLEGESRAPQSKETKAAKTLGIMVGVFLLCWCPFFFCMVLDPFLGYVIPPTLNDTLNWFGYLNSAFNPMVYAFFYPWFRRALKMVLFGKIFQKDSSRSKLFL
Chain of mouse TAAR1 (Q923Y8 whole entry): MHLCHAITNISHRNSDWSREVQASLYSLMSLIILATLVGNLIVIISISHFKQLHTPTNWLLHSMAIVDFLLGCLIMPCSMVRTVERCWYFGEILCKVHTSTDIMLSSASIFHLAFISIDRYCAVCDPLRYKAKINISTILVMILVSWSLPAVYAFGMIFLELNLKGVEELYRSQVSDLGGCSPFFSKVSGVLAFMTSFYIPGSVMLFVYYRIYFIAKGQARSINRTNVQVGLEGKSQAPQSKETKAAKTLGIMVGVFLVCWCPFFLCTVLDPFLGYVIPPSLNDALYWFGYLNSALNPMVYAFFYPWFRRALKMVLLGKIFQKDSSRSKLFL

Structure (SMILES) | Ki (rat TAAR1) [µM] | Ki (mouse TAAR1) [µM] | other results
N#Cc1cccc(-c2cc(-c3ccc(C4CNCCO4)cc3)n[nH]2)c1 (stereo not drawn) [Example 12, 3-[5-(4-Morpholin-2-yl-phenyl)-2H-pyrazol-3-yl]-benzonitrile hydrochloride] | 0.0615 | 0.0005 | –
Fc1ccc(-c2nnc(-c3ccc([C@H]4CNCCO4)cc3)o2)cc1 [Example 17, (S)-2-(4-(5-(4-Fluorophenyl)-1,3,4-oxadiazol-2-yl)phenyl)morpholine hydrochloride] | 0.229 | 0.0032 | –
Fc1ccc(-n2cc(-c3ccc([C@H]4CNCCO4)cc3)cn2)cc1 [Example 19, (S)-2-(4-(1-(4-Fluorophenyl)-1H-pyrazol-4-yl)phenyl)morpholine hydrochloride] | 0.0669 | 0.0015 | –
Fc1ccc(-c2nc(-c3ccc([C@H]4CNCCO4)cc3)n[nH]2)cc1 [Example 20, (S)-2-(4-(5-(4-Fluorophenyl)-1H-1,2,4-triazol-3-yl)phenyl)morpholine hydrochloride] | 0.0779 | 0.0012 | –
O=C(Nc1n[nH]c2cc(C3CNCCO3)ccc12)c1ccc(F)cc1 (stereo not drawn) [Example 21, 4-Fluoro-N-(6-(morpholin-2-yl)-1H-indazol-3-yl)benzamide hydrochloride] | 0.895 | 0.0617 | –
Fc1ccc([C@@H]2COC(c3ccc([C@H]4CNCCO4)cc3)=N2)cc1 [Example 22, (S)-2-{4-[(R)-4-(4-Fluoro-phenyl)-4,5-dihydro-oxazol-2-yl]-phenyl}-morpholine] | 1.51 | 0.0318 | –
Fc1ccc(-c2nc(-c3ccc([C@@H]4CNCCO4)cc3)n[nH]2)cc1 [Example 23, (R)-2-(4-(5-(4-Fluorophenyl)-1H-1,2,4-triazol-3-yl)phenyl)morpholine hydrochloride] | 0.0196 | 0.0015 | –
c1cc([C@H]2CNCCO2)ccc1-c1cc(C2CCOCC2)[nH]n1 [Example 24, (S)-2-(4-(5-(Tetrahydro-2H-pyran-4-yl)-1H-pyrazol-3-yl)phenyl)morpholine hydrochloride] | 0.0722 | > 20 | –
Fc1ccc(-n2cc(-c3ccc([C@@H]4CNCCO4)cc3)cn2)cc1 [Example 26, (R)-2-(4-(1-(4-Fluorophenyl)-1H-pyrazol-4-yl)phenyl)morpholine hydrochloride] | 0.0122 | 0.0006 | –
N#Cc1ccc(-c2cc(-c3ccc([C@H]4CNCCO4)cc3)n[nH]2)cc1 [Example 28, (S)-4-(3-(4-(Morpholin-2-yl)phenyl)-1H-pyrazol-5-yl)benzonitrile hydrochloride] | 0.0168 | 0.001 | –
Fc1ccc(-c2cc(-c3ccc([C@H]4CNCCO4)cc3)n[nH]2)cc1 [Example 29, (S)-2-(4-(5-(4-Fluorophenyl)-1H-pyrazol-3-yl)phenyl)morpholine hydrochloride] | 0.0044 | 0.0007 | –
Fc1ccc(-c2cc(-c3ccc([C@@H]4CNCCO4)cc3)n[nH]2)cc1 [Example 31, (R)-2-(4-(5-(4-Fluorophenyl)-1H-pyrazol-3-yl)phenyl)morpholine hydrochloride] | 0.0036 | 0.001 | –
N#Cc1ccc(-c2cc(-c3ccc([C@@H]4CNCCO4)cc3)n[nH]2)cc1 [Example 32, (R)-4-(3-(4-(Morpholin-2-yl)phenyl)-1H-pyrazol-5-yl)benzonitrile hydrochloride] | 0.0154 | 0.0019 | –
Fc1ccc(-c2nnc(-c3ccc([C@@H]4CNCCO4)cc3)o2)cc1 [Example 34, (R)-2-(4-(5-(4-Fluorophenyl)-1,3,4-oxadiazol-2-yl)phenyl)morpholine hydrochloride] | 0.156 | 0.004 | –
Clc1ccc(-c2cc(-c3ccc([C@H]4CNCCO4)cc3)n[nH]2)cn1 [Example 37, (S)-2-{4-[5-(6-Chloro-pyridin-3-yl)-1H-pyrazol-3-yl]-phenyl}-morpholine hydrochloride] | 0.304 | 0.004 | –
Clc1ccc(-c2cc(-c3ccc([C@@H]4CNCCO4)cc3)n[nH]2)cn1 [Example 38, (R)-2-{4-[5-(6-Chloro-pyridin-3-yl)-1H-pyrazol-3-yl]-phenyl}-morpholine hydrochloride] | 0.0257 | 0.0027 | –
Fc1ccc(-c2cc(-c3ccc([C@H]4CNCCO4)cc3F)n[nH]2)cc1 [Example 40, (S)-2-(3-Fluoro-4-(5-(4-fluorophenyl)-1H-pyrazol-3-yl)phenyl)morpholine hydrochloride] | 0.0155 | 0.0012 | –
Fc1ccc(-c2cc(-c3ccc([C@@H]4CNCCO4)cc3F)n[nH]2)cc1 [Example 41, (R)-2-(3-Fluoro-4-(5-(4-fluorophenyl)-1H-pyrazol-3-yl)phenyl)morpholine hydrochloride] | 0.0043 | 0.0011 | –
FC(F)(F)c1cnc2[nH]c3ccc([C@H]4CNCCO4)cc3c2c1 [Example 46, (S)-2-(3-(Trifluoromethyl)-9H-pyrido[2,3-b]indol-6-yl)morpholine hydrochloride] | 0.0698 | 0.0023 | –
Clc1cnc2[nH]c3ccc([C@H]4CNCCO4)cc3c2c1 [Example 47, (S)-2-(3-Chloro-9H-pyrido[2,3-b]indol-6-yl)morpholine hydrochloride] | 0.075 | 0.0032 | –
FC(F)(F)c1cnc2[nH]c3ccc([C@@H]4CNCCO4)cc3c2c1 [Example 48, (R)-2-(3-(Trifluoromethyl)-9H-pyrido[2,3-b]indol-6-yl)morpholine hydrochloride] | – | – | Ki (rat TAAR1; hydrochloride): 0.0639 µM; Ki (mouse TAAR1; hydrochloride): 0.0081 µM
FC(F)(F)c1cnc2[nH]c3ccc([C@@H]4CNCCO4)cc3c2c1 [Example 50, (R)-2-(3-(Trifluoromethyl)-9H-pyrido[2,3-b]indol-6-yl)morpholine hydrochloride] | – | – | Ki (rat TAAR1; hydrochloride): 0.0303 µM; Ki (mouse TAAR1; hydrochloride): 0.0082 µM
FC(F)(F)c1ccc(-c2nc3ccc([C@@H]4CNCCO4)cc3o2)cn1 [Example 53, (R)-6-(Morpholin-2-yl)-2-(6-(trifluoromethyl)pyridin-3-yl)benzo[d]oxazole hydrochloride] | 0.226 | 0.0463 | –
CCN(C[C@H]1COC(N)=N1)c1ccccc1 [^3[H]-(S)-4-[(ethyl-phenyl-amino)-methyl]-4,5-dihydro-oxazol-2-ylamine, reference compound] | – | – | Kd (rat TAAR1; rat TAAR1, saturation curve, usual value per membrane batch, read-out: dissociation constant (Kd) of the radioligand): ~2.3 nM; Kd (mouse TAAR1; mouse TAAR1, saturation curve, usual value per membrane batch, read-out: dissociation constant (Kd) of the radioligand): ~0.7 nM
